# In patent US20200046703A1, “COMPOSITIONS AND METHODS FOR TREATMENT OF THE SIDE-EFFECTS ASSOCIATED WITH ADMINISTRATION OF THERAPEUTIC AGENTS” (ASYMMETRIC THERAPEUTICS, LLC, priority 2018, published 2020):
# Experiments:
# marrow cells = conditions: about a 30-fold excess; in patients; cited from earlier work
# Solubility of oxypurinol = assay type: physicochemical; conditions: in vitro; in the protective formulation; read-out: maximum in vitro solubility / upper limit of solubility
# confluent HPEK cells = assay: Confluent HPEK cell viability with/without 5-FU; assay type: cell-based, human; conditions: for relative cell viability (AVG): 120 hours; for Relative Protection against 5-FU toxicity / Relative Growth in the presence of 5-FU: HPEK confluent cells; for Relative Protection against 5-FU toxicity: fraction of viability loss prevented; for Relative Growth in the presence of 5-FU: viability with 5-FU divided by viability without 5-FU
# Procedure: Oxypurinol and allopurinol concentrations of 0.3 mM, 1.0 mM, and 3.0 mM, which are ten times higher than those used in the first set of experiments, were tested. An adenine concentration of 0.3 mM, which was the higher concentration used in the first set of experiments, was tested. The relative viability of the cells was determined after 120 hours.
# confluent NHEK cells = assay: Confluent NHEK cell viability with/without 5-FU; assay type: cell-based, human; conditions: for relative cell viability (AVG): 120 hours; for Relative Protection against 5-FU toxicity: fraction of viability loss prevented
# Procedure: In yet another set of experiments, the results of which are shown in Table 4, confluent NHEK cells were exposed to the clinically-relevant dose of 10 μM of 5-FU and different concentrations of sodium hydroxide, oxypurinol, or allopurinol using standard tissue culture methods and incubated at 37° C. Sodium hydroxide concentrations of 1 mM, 2 mM, 3 mM, and 4 mM were tested. Oxypurinol and allopurinol concentrations of 0.1 mM, 0.3 mM, 1.0 mM, and 3.0 mM were tested, both in the presence and in the absence of 10 μM of 5-FU. The relative viability of the cells was determined after 120 hours. The sodium hydroxide trials were only performed to serve as a control.
# proliferating HGEP cells = assay: Proliferating HGEP cell viability with/without 5-FU; assay type: cell-based, human; conditions: for relative cell viability (AVG): 120 hours
# Procedure: (§1) In one set of experiments, the results of which are shown in Table 1, proliferating HGEP cells, commonly used to assess oral mucosal toxicity, were exposed to the clinically-relevant dose of 10 μM of 5-FU and different concentrations of oxypurinol, either alone or with different concentrations of adenine or uracil, using standard tissue culture methods and incubated at 37° C. Oxypurinol concentrations of 0.03 mM, 0.1 mM, and 0.3 mM were tested. Adenine and uracil concentrations of 0.1 mM and 0.3 mM were tested. The relative viability of the cells was determined after 120 hours.
# proliferating HPEK cells = assay: Proliferating HPEK cell viability with/without 5-FU; assay type: cell-based, human; conditions: for relative cell viability (AVG): 120 hours; for Relative Protection against 5-FU toxicity / Relative Growth in the presence of 5-FU: HPEK proliferating cells; for Relative Protection against 5-FU toxicity: fraction of viability loss prevented; for Relative Growth in the presence of 5-FU: viability with 5-FU divided by viability without 5-FU
# Procedure: as §1, with “In another” for “In one”, “Table 2,” for “Table 1,”, “proliferating HPEK” for “proliferating HGEP”, “assess skin tissue” for “assess oral mucosal”
# [1] = 0.3 mM, with 5-FU 10 μM, listed as oxypurinol
# [2] = 1.0 mM, with 5-FU 10 μM, listed as oxypurinol
# [3] = 3.0 mM, with 5-FU 10 μM, listed as oxypurinol
# [4] = concentrations of 0.1 mM and 0.3 mM
structure (smiles),measurement,setting,value
"O=c1nc2[nH][nH]cc-2c(=O)[nH]1 [Oxypurinol, oxypurinol]",protection of marrow cells from 5-FU toxicity,marrow cells,completely protect marrow cells from 5-FU toxicity
same,solubility,Solubility of oxypurinol,~3000 µM
same,relative cell viability (AVG),"confluent HPEK cells; 0.3 mM, no 5-FU",1.0183
same,relative cell viability (AVG),"confluent HPEK cells; 0.3 mM, with 5-FU 10 μM",0.7226
same,relative cell viability (AVG),confluent HPEK cells; [1],0.72
same,relative cell viability (AVG),"confluent HPEK cells; 1.0 mM, no 5-FU",1.0706
same,relative cell viability (AVG),"confluent HPEK cells; 1.0 mM, no 5-FU, listed as oxypurinol",1.07
same,relative cell viability (AVG),"confluent HPEK cells; 1.0 mM, with 5-FU 10 μM",0.7509
same,relative cell viability (AVG),confluent HPEK cells; [2],0.75
same,relative cell viability (AVG),"confluent HPEK cells; 3.0 mM, no 5-FU",0.8351
same,relative cell viability (AVG),"confluent HPEK cells; 3.0 mM, no 5-FU, listed as oxypurinol",0.835
same,relative cell viability (AVG),"confluent HPEK cells; 3.0 mM, with 5-FU 10 μM",0.8147
same,relative cell viability (AVG),confluent HPEK cells; [3],0.81
same,protection from 5-FU toxicity compared with allopurinol,"confluent HPEK cells; HPEK cells, FIG. 1, across the range of tested concentrations",significantly better
same,Relative Protection against 5-FU toxicity,confluent HPEK cells; 0.3 mM,0.2249
same,Relative Growth in the presence of 5-FU,confluent HPEK cells; 0.3 mM,0.7096
same,Relative Protection against 5-FU toxicity,confluent HPEK cells; 1.0 mM,0.3039
same,Relative Growth in the presence of 5-FU,confluent HPEK cells; 1.0 mM,0.7013
same,Relative Protection against 5-FU toxicity,confluent HPEK cells; 3.0 mM,0.4822
same,Relative Growth in the presence of 5-FU,confluent HPEK cells; 3.0 mM,0.9755
same,oxypurinol toxicity,"confluent HPEK cells; HPEK, up to about 3 mM",no evidence of oxypurinol toxicity
same,effect on cell viability in the presence of 5-FU,confluent HPEK cells; concentration range of 0.3 mM to 3.0 mM,protective effect
same,"preservation of growth, with versus without 5-FU","confluent HPEK cells; oxypurinol at 3 mM, 5-FU 10 μM",97.5%
same,effect on cell viability in the presence of 5-FU,confluent NHEK cells; 0.1 mM to 3.0 mM,protective effect
same,relative cell viability (AVG),"confluent NHEK cells; 0.1 mM, no 5-FU",0.8884
same,relative cell viability (AVG),"confluent NHEK cells; 0.1 mM, with 5-FU 10 μM",0.5818
same,relative cell viability (AVG),"confluent NHEK cells; 0.1 mM, with 5-FU 10 μM, listed as oxypurinol",0.58
same,relative cell viability (AVG),"confluent NHEK cells; 0.3 mM, no 5-FU",0.9059
same,relative cell viability (AVG),"confluent NHEK cells; 0.3 mM, with 5-FU 10 μM",0.5881
same,relative cell viability (AVG),confluent NHEK cells; [1],0.59
same,relative cell viability (AVG),"confluent NHEK cells; 1.0 mM, no 5-FU",0.9580
same,relative cell viability (AVG),"confluent NHEK cells; 1.0 mM, with 5-FU 10 μM",0.5965
same,relative cell viability (AVG),confluent NHEK cells; [2],0.60
same,Relative Growth in the presence of 5-FU,"confluent NHEK cells; 3.0 mM, NHEK, FIG. 2",over 73%
same,relative cell viability (AVG),"confluent NHEK cells; 3.0 mM, no 5-FU",0.9784
same,relative cell viability (AVG),"confluent NHEK cells; 3.0 mM, with 5-FU 10 μM",0.7165
same,relative cell viability (AVG),confluent NHEK cells; [3],0.72
same,protection from 5-FU toxicity compared with allopurinol,"confluent NHEK cells; NHEK cells, FIG. 2, across the range of tested concentrations",significantly better
same,Relative Protection against 5-FU toxicity,"confluent NHEK cells; NHEK, 0.1 mM",0.2834
same,Relative Growth in the presence of 5-FU,"confluent NHEK cells; NHEK, 0.1 mM, viability with 5-FU divided by viability without 5-FU",0.6549
same,Relative Protection against 5-FU toxicity,"confluent NHEK cells; NHEK, 0.3 mM",0.2941
same,Relative Growth in the presence of 5-FU,"confluent NHEK cells; NHEK, 0.3 mM, viability with 5-FU divided by viability without 5-FU",0.6492
same,Relative Protection against 5-FU toxicity,"confluent NHEK cells; NHEK, 1.0 mM",0.3085
same,Relative Growth in the presence of 5-FU,"confluent NHEK cells; NHEK, 1.0 mM, viability with 5-FU divided by viability without 5-FU",0.6226
same,Relative Protection against 5-FU toxicity,"confluent NHEK cells; NHEK, 3.0 mM",0.5142
same,Relative Growth in the presence of 5-FU,"confluent NHEK cells; NHEK, 3.0 mM, viability with 5-FU divided by viability without 5-FU",0.7323
same,oxypurinol toxicity,"confluent NHEK cells; NHEK, up to about 3 mM",no evidence of oxypurinol toxicity
same,effect on cell viability in the absence of 5-FU,confluent NHEK cells; range of 0.1 mM to 3.0 mM,small negative effect
same,relative cell viability (AVG),"proliferating HGEP cells; 0.03 mM, no 5-FU",0.8792
same,relative cell viability (AVG),"proliferating HGEP cells; 0.03 mM, with 5-FU 10 μM",0.6441
same,relative cell viability (AVG),"proliferating HGEP cells; 0.1 mM, no 5-FU",0.7134
same,relative cell viability (AVG),"proliferating HGEP cells; 0.1 mM, with 5-FU 10 μM",0.7540
same,relative cell viability (AVG),"proliferating HGEP cells; 0.3 mM, no 5-FU",0.6367
same,relative cell viability (AVG),"proliferating HGEP cells; 0.3 mM, with 5-FU 10 μM",0.8925
same,effect on cell viability in the absence of 5-FU,proliferating HGEP cells; 0.03 to 0.3 mM,negative effect
same,effect on cell viability in the presence of 5-FU,proliferating HGEP cells; [4],protective effect
same,relative cell viability (AVG),"proliferating HPEK cells; 0.03 mM, no 5-FU",1.0763
same,relative cell viability (AVG),"proliferating HPEK cells; 0.03 mM, with 5-FU 10 μM",0.6903
same,relative cell viability (AVG),"proliferating HPEK cells; 0.1 mM, no 5-FU",0.7961
same,relative cell viability (AVG),"proliferating HPEK cells; 0.1 mM, with 5-FU 10 μM",0.7961
same,relative cell viability (AVG),"proliferating HPEK cells; 0.3 mM, no 5-FU",1.0201
same,relative cell viability (AVG),"proliferating HPEK cells; 0.3 mM, with 5-FU 10 μM",0.8635
same,Relative Protection against 5-FU toxicity,proliferating HPEK cells; 0.03 mM,0.1133
same,Relative Growth in the presence of 5-FU,proliferating HPEK cells; 0.03 mM,0.6414
same,Relative Protection against 5-FU toxicity,proliferating HPEK cells; 0.1 mM,0.4163
same,Relative Growth in the presence of 5-FU,proliferating HPEK cells; 0.1 mM,1.0000
same,Relative Protection against 5-FU toxicity,proliferating HPEK cells; 0.3 mM,0.6092
same,Relative Growth in the presence of 5-FU,proliferating HPEK cells; 0.3 mM,0.8465
same,effect on cell viability in the presence of 5-FU,proliferating HPEK cells; [4],protective effect
same,effect on cell viability in the absence of 5-FU,proliferating HPEK cells; range of 0.03 mM to 0.3 mM,minimal effect
